{"source": "patent US20120245518A1", "about": "“PHARMACEUTICAL COMPOSITION FOR THE TREATMENT OF BLADDER DISORDERS” (Ritcher Gedeon NYRT., priority 2009, published 2012)", "origin": "cited, not measured here", "system": "matrix metalloproteinases, particularly the MMP-9", "data": [{"substance": "sodium hyaluronate", "values": [{"measurement": "inhibitory effect on matrix metalloproteinases, particularly MMP-9", "result": "does not show the latter effect"}]}]}
